Test results: ChEMBL document CHEMBL2424604, “Design, synthesis and QSAR studies of dispiroindole derivatives as new antiproliferative agents” (Eur J Med Chem, 2013)
pIC50: −log10 of the molar value.

Tests used:
Assay type in all cases: functional, cell-based
[1] = test system: PC-3; assay: Cytotoxicity against human PC3 cells after 48 hrs by SRB assay; conditions: PC-3, 48 h
[2] = test system: HeLa; assay: Cytotoxicity against human HeLa cells after 48 hrs by SRB assay
[3] = test system: HepG2; assay: Cytotoxicity against human HepG2 cells after 48 hrs by SRB assay; conditions: HepG2, 48 h

| SMILES | pIC50 [1] | pIC50 [2] | pIC50 [3] |
| --- | --- | --- | --- |
| CN1C[C@@H](c2ccccc2)[C@@]2(CCC/C(=C\c3ccccc3)C2=O)[C@@]12C(=O)N(CN1CCOCC1)c1ccccc12 | 4.57 | 4.83 | 4.87 |
| COc1ccc(/C=C2\CCC[C@]3(C2=O)[C@H](c2ccc(OC)cc2)CN(C)[C@]32C(=O)N(CN3CCOCC3)c3ccccc32)cc1 | 4.23 | 4.73 | 4.73 |
| COc1cccc2c1C(=O)c1c(O)c3c(c(O)c1C2=O)C[C@@](O)(C(=O)CO)C[C@@H]3O[C@H]1C[C@H](N)[C@H](O)[C@H](C)O1 [DOXORUBICIN] | 5.05 | 5.11 | – |
| COc1ccc(/C=C2\CCC[C@]3(C2=O)[C@H](c2ccc(OC)c(OC)c2)CN(C)[C@]32C(=O)N(CN3CCOCC3)c3ccccc32)cc1OC | 4.49 | 4.96 | 5.16 |
| Cc1ccc(/C=C2\CCC[C@]3(C2=O)[C@H](c2ccc(C)cc2)CN(C)[C@]32C(=O)N(CN3CCOCC3)c3ccccc32)cc1 | 4.48 | 4.88 | 4.66 |
| CN1C[C@@H](c2ccc(Cl)cc2Cl)[C@@]2(CCC/C(=C\c3ccc(Cl)cc3Cl)C2=O)[C@@]12C(=O)N(CN1CCOCC1)c1ccccc12 | 4.66 | 4.65 | 4.60 |
| Cc1ccc(/C=C2\CCC[C@]3(C2=O)[C@H](c2ccc(C)o2)CN(C)[C@]32C(=O)N(CN3CCOCC3)c3ccccc32)o1 | 4.67 | 4.74 | 4.55 |
| CN1C[C@@H](c2cccs2)[C@@]2(CCC/C(=C\c3cccs3)C2=O)[C@@]12C(=O)N(CN1CCOCC1)c1ccccc12 | 4.52 | 4.56 | 4.52 |
| CN1C[C@@H](c2ccc(F)cc2)[C@@]2(CCC/C(=C\c3ccc(F)cc3)C2=O)[C@@]12C(=O)N(CN1CCOCC1)c1ccccc12 | 4.71 | 5.16 | 5.09 |
